Tests used:
[1] = tested on: Chemotherapeutic agent-caused diarrhea models of Balb/c mice; assay: Relieving effect on diarrhea caused by a chemotherapeutic agent (Examples 1-201); type: in vivo
Description: Construction of mouse animal models: Chemotherapeutic agent-caused diarrhea models of Balb/c mice were constructed according to the administration mode and frequency of the chemotherapeutic agent as shown in Table 3. After administration for several days, mice developed different extents of diarrhea symptoms (as shown in FIG. 1), which were similar to the conditions in human. Thus, chemotherapeutic agent-caused diarrhea models of mice are very good models to mimic diarrhea in human caused by the chemotherapeutic agent.
Balb/c mice were fed for 1 week, and then divided into groups. The experiment was divided into a control group, a chemotherapeutic agent group, and a group of the compound as shown in Formula I, each of which comprised 10 mice, to perform the administration experiment, for which the administration dosage, mode, time and frequency were shown in Table 3. The control group: being injected or intragastrically administered with the same solvent as that used in the group of the compound as shown in Formula I (the injection mode and time were shown in Table 3), and then being injected or intragastrically administered with the same solvent as that used in the chemotherapeutic agent group (the administration mode was shown in Table 3); the chemotherapeutic agent group: being injected or intragastrically administered with the same solvent as that used in the group of the compound as shown in Formula I (the administration mode and time were shown in Table 3), and then being injected or intragastrically administered with the chemotherapeutic agent (the type, administration mode and dosage were shown in Table 3); the group of the compound as shown in Formula I: being injected or intragastrically administered with the compound as shown in Formula I (the administration mode and time were shown in Table 3), and then being administered with the chemotherapeutic agent (the administration mode and dosage were shown in Table 3).
(§1) The scoring of diarrhea can refer to the method of Akinobu Kurita (Cancer Chemother Pharmacol 2000; 46:211-20.), Grade 0: normal feces; Grade 1: mild diarrhea, the stools is slightly wet and soft; Grade 2: moderate diarrhea, loose stools and mild perianal contamination; Grade 3: severe diarrhea, watery stools and accompanied by severe perianal staining (see FIG. 1). It is regarded as effective remission when the diarrhea grading of mice in the group of the compound as shown in Formula I is reduced compared with the average diarrhea grading of mice in the chemotherapeutic agent group.
(§2) The diarrhea grading of mice was observed and recorded every day. At the end of the experiment, the number of mice in the group of the compound as shown in Formula I whose diarrhea grading was lower than that of mice in the chemotherapeutic agent group was recorded. Table 3 lists various animal experiment combinations of chemotherapeutic agents and the compound as shown in Formula I, as well as the corresponding experimental results. (Relative remission rate %=the number of mice in the group of the compound as shown in Formula I whose diarrhea has been effectively relieved/the total number of mice in the group of the compound as shown in Formula I*100%. The establishment rate of diarrhea model in the chemotherapeutic agent group was 50%-70%, that is, about 5-7 of 10 mice developed diarrhea during the experiment, and there were cases of individual mice death or not developing diarrhea.)

[2] = tested on: Balb/c mice, diarrhea caused by continuous administration of a chemotherapeutic agent; assay: Relieving effect on diarrhea caused by the continuous administration of a chemotherapeutic agent (Examples 365-384); type: in vivo
Description: Balb/c mice were fed for 1 week, and then divided into groups. The experiment was divided into a control group, a chemotherapeutic agent group, and a group of the compound as shown in Formula I, each of which comprised 10 mice, to perform the administration experiment, for which the administration dosage, mode, time and frequency were shown in Table 5. The control group: being injected or intragastrically administered with the same solvent as that used in the group of the compound as shown in Formula I (the administration mode and time were shown in Table 5), and then being injected or intragastrically administered with the same solvent as that used in the chemotherapeutic agent group (the administration mode was shown in Table 5); the chemotherapeutic agent group: being injected or intragastrically administered with the same solvent as that used in the group of the compound as shown in Formula I (the administration mode and time were shown in Table 5), and then being injected or intragastrically administered with the chemotherapeutic agent (the type, administration mode, time and dosage were shown in Table 5); the group of the compound as shown in Formula I: being injected or intragastrically administered with the compound as shown in Formula I (the administration mode and time were shown in Table 5), and then being administered with the chemotherapeutic agent (the type, administration mode, time and dosage were shown in Table 5).
as §1, with “0):” for “0:”
as §2, with “5” for “3”, “50%-80%,” for “50%-70%,”, “5-8” for “5-7”

## CN1CCN(c2ccc(Nc3ncc4cc5n(c4n3)C3(CCCCC3)CNC5=O)nc2)CC1 [Compound I, Trilaciclib]
[1]; Ex 131, Fluorouracil 100 + irinotecan 200 mg/kg intraperitoneal single, compound 150 mg/kg oral single 24 h before, cycle 8 days
  Relative remission rate: 30%
[1]; Ex 138, Fluorouracil 50 + oxaliplatin 5 + irinotecan 50 mg/kg intraperitoneal single, compound 100 mg/kg intraperitoneal single 0.5 h before, cycle 10 days
  Relative remission rate: 50%
[1]; Ex 139, Fluorouracil 50 + oxaliplatin 5 + irinotecan 50 mg/kg intraperitoneal single, compound 100 mg/kg intraperitoneal single 4 h before, cycle 10 days
  Relative remission rate: 40%
[1]; Ex 140, Fluorouracil 50 + oxaliplatin 5 + irinotecan 50 mg/kg intraperitoneal single, compound 100 mg/kg intraperitoneal single 8 h before, cycle 10 days
  Relative remission rate: 40%
[1]; Ex 141, Fluorouracil 50 + oxaliplatin 5 + irinotecan 50 mg/kg intraperitoneal single, compound 100 mg/kg intraperitoneal single 12 h before, cycle 10 days
  Relative remission rate: 50%
[1]; Ex 142, Fluorouracil 50 + oxaliplatin 5 + irinotecan 50 mg/kg intraperitoneal single, compound 100 mg/kg intraperitoneal single 24 h before, cycle 10 days
  Relative remission rate: 50%
[1]; Ex 143, Fluorouracil 50 + oxaliplatin 5 + irinotecan 50 mg/kg intraperitoneal single, compound 100 mg/kg intraperitoneal single 48 h before, cycle 10 days
  Relative remission rate: 0%
[1]; Ex 144, Fluorouracil 50 + oxaliplatin 5 + irinotecan 50 + tetrahydrofolic acid 90 mg/kg intravenous single, compound 100 mg/kg intravenous single 0.5 h before, cycle 10 days
  Relative remission rate: 50%
[1]; Ex 145, Fluorouracil 50 + oxaliplatin 5 + irinotecan 50 + tetrahydrofolic acid 90 mg/kg intravenous single, compound 100 mg/kg intravenous single 1 h before, cycle 10 days
  Relative remission rate: 40%
[1]; Ex 146, Fluorouracil 50 + oxaliplatin 5 + irinotecan 50 + tetrahydrofolic acid 90 mg/kg intravenous single, compound 100 mg/kg intravenous single 2 h before, cycle 10 days
  Relative remission rate: 40%
[1]; Ex 147, Fluorouracil 50 + oxaliplatin 5 + irinotecan 50 + tetrahydrofolic acid 90 mg/kg intravenous single, compound 100 mg/kg intravenous single 3 h before, cycle 10 days
  Relative remission rate: 30%
[1]; Ex 148, Fluorouracil 50 + oxaliplatin 5 + irinotecan 50 + tetrahydrofolic acid 90 mg/kg intravenous single, compound 100 mg/kg intravenous single 4 h before, cycle 10 days
  Relative remission rate: 40%
[1]; Ex 149, Fluorouracil 50 + oxaliplatin 5 + irinotecan 50 + tetrahydrofolic acid 90 mg/kg intravenous single, compound 100 mg/kg intravenous single 6 h before, cycle 10 days
  Relative remission rate: 40%
[1]; Ex 150, Fluorouracil 50 + oxaliplatin 5 + irinotecan 50 + tetrahydrofolic acid 90 mg/kg intravenous single, compound 100 mg/kg intravenous single 8 h before, cycle 10 days
  Relative remission rate: 30%
[1]; Ex 151, Fluorouracil 50 + oxaliplatin 5 + irinotecan 50 + tetrahydrofolic acid 90 mg/kg intravenous single, compound 100 mg/kg intravenous single 10 h before, cycle 10 days
  Relative remission rate: 30%
[1]; Ex 152, Fluorouracil 50 + oxaliplatin 5 + irinotecan 50 + tetrahydrofolic acid 90 mg/kg intravenous single, compound 100 mg/kg intravenous single 12 h before, cycle 10 days
  Relative remission rate: 30%
[1]; Ex 153, Fluorouracil 50 + oxaliplatin 5 + irinotecan 50 + tetrahydrofolic acid 90 mg/kg intravenous single, compound 100 mg/kg intravenous single 14 h before, cycle 10 days
  Relative remission rate: 50%
[1]; Ex 154, Fluorouracil 50 + oxaliplatin 5 + irinotecan 50 + tetrahydrofolic acid 90 mg/kg intravenous single, compound 100 mg/kg intravenous single 16 h before, cycle 10 days
  Relative remission rate: 50%
[1]; Ex 155, Fluorouracil 50 + oxaliplatin 5 + irinotecan 50 + tetrahydrofolic acid 90 mg/kg intravenous single, compound 100 mg/kg intravenous single 18 h before, cycle 10 days
  Relative remission rate: 60%
[1]; Ex 156, Fluorouracil 50 + oxaliplatin 5 + irinotecan 50 + tetrahydrofolic acid 90 mg/kg intravenous single, compound 100 mg/kg intravenous single 20 h before, cycle 10 days
  Relative remission rate: 60%
[1]; Ex 157, Fluorouracil 50 + oxaliplatin 5 + irinotecan 50 + tetrahydrofolic acid 90 mg/kg intravenous single, compound 100 mg/kg intravenous single 24 h before, cycle 10 days
  Relative remission rate: 30%
[1]; Ex 158, Fluorouracil 50 + oxaliplatin 5 + irinotecan 50 + tetrahydrofolic acid 90 mg/kg intravenous single, compound 100 mg/kg intravenous single 48 h before, cycle 10 days
  Relative remission rate: 0%
[1]; Ex 159, Fluorouracil 50 + oxaliplatin 5 + irinotecan 50 + tetrahydrofolic acid 90 mg/kg intraperitoneal single, compound 100 mg/kg intraperitoneal single 0.5 h before, cycle 7 days
  Relative remission rate: 50%
[1]; Ex 160, Fluorouracil 50 + oxaliplatin 5 + irinotecan 50 + tetrahydrofolic acid 90 mg/kg intraperitoneal single, compound 100 mg/kg intraperitoneal single 24 h before, cycle 7 days
  Relative remission rate: 20%
[1]; Ex 163, Fluorouracil 50 + oxaliplatin 5 + irinotecan 50 + tetrahydrofolic acid 90 mg/kg intraperitoneal single, compound 150 mg/kg oral single 0.5 h before, cycle 7 days
  Relative remission rate: 40%
[1]; Ex 164, Fluorouracil 50 + oxaliplatin 5 + irinotecan 50 + tetrahydrofolic acid 90 mg/kg intraperitoneal single, compound 150 mg/kg oral single 4 h before, cycle 7 days
  Relative remission rate: 60%
[1]; Ex 165, Fluorouracil 50 + oxaliplatin 5 + irinotecan 50 + tetrahydrofolic acid 90 mg/kg intraperitoneal single, compound 150 mg/kg oral single 8 h before, cycle 7 days
  Relative remission rate: 80%
[1]; Ex 166, Fluorouracil 50 + oxaliplatin 5 + irinotecan 50 + tetrahydrofolic acid 90 mg/kg intraperitoneal single, compound 150 mg/kg oral single 12 h before, cycle 7 days
  Relative remission rate: 40%
[1]; Ex 167, Fluorouracil 50 + oxaliplatin 5 + irinotecan 50 + tetrahydrofolic acid 90 mg/kg intraperitoneal single, compound 150 mg/kg oral single 24 h before, cycle 7 days
  Relative remission rate: 20%
[1]; Ex 168, Fluorouracil 50 + oxaliplatin 5 + irinotecan 50 + tetrahydrofolic acid 90 mg/kg intraperitoneal single, compound 150 mg/kg oral single 0.5 h before, cycle 7 days
  Relative remission rate: 40%
[1]; Ex 169, Fluorouracil 50 + oxaliplatin 5 + irinotecan 50 + tetrahydrofolic acid 90 mg/kg intraperitoneal single, compound 150 mg/kg oral single 4 h before, cycle 7 days
  Relative remission rate: 60%
[1]; Ex 170, Fluorouracil 50 + oxaliplatin 5 + irinotecan 50 + tetrahydrofolic acid 90 mg/kg intraperitoneal single, compound 150 mg/kg oral single 8 h before, cycle 7 days
  Relative remission rate: 80%
[1]; Ex 171, Fluorouracil 50 + oxaliplatin 5 + irinotecan 50 + tetrahydrofolic acid 90 mg/kg intraperitoneal single, compound 150 mg/kg oral single 12 h before, cycle 7 days
  Relative remission rate: 40%
[1]; Ex 172, Fluorouracil 50 + oxaliplatin 5 + irinotecan 50 + tetrahydrofolic acid 90 mg/kg intraperitoneal single, compound 150 mg/kg oral single 24 h before, cycle 7 days
  Relative remission rate: 20%
[1]; Ex 190, Fluorouracil 100 + oxaliplatin 10 + irinotecan 200 + tetrahydrofolic acid 100 mg/kg oral single, compound 100 mg/kg subcutaneous single 1 h before, cycle 7 days
  Relative remission rate: 60%
[1]; Ex 191, Fluorouracil 100 + oxaliplatin 10 + irinotecan 200 + tetrahydrofolic acid 100 mg/kg oral single, compound 100 mg/kg subcutaneous single 2 h before, cycle 7 days
  Relative remission rate: 50%
[1]; Ex 192, Fluorouracil 100 + oxaliplatin 10 + irinotecan 200 + tetrahydrofolic acid 100 mg/kg oral single, compound 100 mg/kg subcutaneous single 4 h before, cycle 7 days
  Relative remission rate: 30%
[1]; Ex 193, Fluorouracil 100 + oxaliplatin 10 + irinotecan 200 + tetrahydrofolic acid 100 mg/kg oral single, compound 100 mg/kg subcutaneous single 6 h before, cycle 7 days
  Relative remission rate: 30%
[1]; Ex 196, Gemcitabine (GEM) 120 mg/kg intraperitoneal single, compound 100 mg/kg oral single 12 h before, cycle 8 days
  Relative remission rate: 50%
[1]; administered before the chemotherapeutic agent, Table 3 and FIG. 2
  diarrhea gradings compared with the chemotherapeutic agent group: relieved to different degrees
[2]; Example 365, Fluorouracil (5-Fu) intraperitoneal injection 70 mg/kg once a day, for 3 days, compound intravenous injection 100 mg/kg once a day, for 3 days, 2 h before chemotherapeutic agent, cycle 10 days
  Relative remission rate (%): 60%
[2]; Example 366, Fluorouracil (5-Fu) intraperitoneal injection 70 mg/kg once a day, for 3 days, compound intravenous injection 100 mg/kg once a day, for 3 days, 4 h before chemotherapeutic agent, cycle 10 days
  Relative remission rate (%): 40%
[2]; Example 367, Fluorouracil (5-Fu) intraperitoneal injection 70 mg/kg once a day, for 3 days, compound intravenous injection 100 mg/kg once a day, for 3 days, 6 h before chemotherapeutic agent, cycle 10 days
  Relative remission rate (%): 30%
[2]; Example 368, Fluorouracil (5-Fu) intraperitoneal injection 70 mg/kg once a day, for 3 days, compound intravenous injection 100 mg/kg once a day, for 3 days, 8 h before chemotherapeutic agent, cycle 10 days
  Relative remission rate (%): 20%
[2]; Example 369, Fluorouracil (5-Fu) intraperitoneal injection 70 mg/kg once a day, for 5 days, compound intraperitoneal injection 100 mg/kg once a day, for 5 days, 2 h before chemotherapeutic agent, cycle 9 days
  Relative remission rate (%): 50%
[2]; Example 370, Fluorouracil (5-Fu) intraperitoneal injection 70 mg/kg once a day, for 5 days, compound intraperitoneal injection 100 mg/kg once a day, for 5 days, 4 h before chemotherapeutic agent, cycle 9 days
  Relative remission rate (%): 30%
[2]; Example 371, Fluorouracil (5-Fu) intraperitoneal injection 70 mg/kg once a day, for 5 days, compound intraperitoneal injection 100 mg/kg once a day, for 5 days, 6 h before chemotherapeutic agent, cycle 9 days
  Relative remission rate (%): 20%
[2]; Example 372, Fluorouracil (5-Fu) intraperitoneal injection 70 mg/kg once a day, for 5 days, compound intraperitoneal injection 100 mg/kg once a day, for 5 days, 8 h before chemotherapeutic agent, cycle 9 days
  Relative remission rate (%): 10%
[2]; Example 376, Fluorouracil (5-Fu) intraperitoneal injection 70 mg/kg once a day, for 7 days, compound intraperitoneal injection 125 mg/kg once a day, for 7 days, 2 h before chemotherapeutic agent, cycle 10 days
  Relative remission rate (%): 10%
[2]; Example 383, Fluorouracil (5-Fu) intravenous injection 70 mg/kg once a day for 3 days, compound oral administration 100 mg/kg once a day, for 3 days, 6 h before chemotherapeutic agent, cycle 8 days
  Relative remission rate (%): 50%
[2]; Example 384, Fluorouracil (5-Fu) oral administration 50 mg/kg once a day, for 14 days, compound intraperitoneal injection 100 mg/kg once a day, for 14 days, 8 h before chemotherapeutic agent, cycle 14 days
  Relative remission rate (%): Ineffective
[2]; continuous administration of fluorouracil for 14 days
  relieving effect on diarrhea: ineffective
[2]; continuous administration of the chemotherapeutic agent for 7 days or less
  relieving effects on diarrhea: have relieving effects
[2]; continuous administration of the chemotherapeutic agent for less than 7 days
  relieving effects on diarrhea: significant
